US5032597A, “Method of using phenylquinolinecarboxylic acids and derivatives for lymthoid leukemia treatment in a mammal” (priority 1987, dated 1991)
≈ marks a conversion by molar mass, not a printed value. Where “and” joins values, the source holds several entries; their conditions need not be identical. Equal values may be shown once. Read-outs that look alike come from different tables or passages of the source.

How the values were obtained:
melanotic melanoma B16 = assay: Melanotic Melanoma B16 test, survival of tumored mice; type: in vivo, B6C3F1 mice; conditions: for T/C × 100 (median survival time): 9 days, 2 tests
Method: The efficacy of the compounds of this invention against the transplanted mouse tumors was evaluated in test systems currently in use at the National Cancer Institute for the detection and assessment of anticancer activity. […] J. Cancer, 17, 129-142, (1981); Venditti, J. M., Seminars in Oncology, 8 (4) (1981); Goldin, A. and J. M. Venditti, in Recent Results in Cancer Research, 70, S. K. Carter and Y. Sakurai, Eds., Springer-Verlag, Berlin/Heidelberg, 1980].
The animals used were B6 C3 F1 mice, all of one sex, weighing a minimum of 18 g for males and 17 g for females and all within a 4 g weight range at the start of the test. The test group comprised 9 or 10 mice. The tumor was implanted in each of the test mice by the subcutaneous injection of 0.5 ml of a tumor homogenate prepared by homogenizing a 1 g portion of melanotic melanoma in 10 ml of cold physiological saline. The test compounds suspended in hydroxypropylcellulose were administered intraperitoneally at various doses once daily for nine consecutive days starting on day one relative to the day of tumor inoculation (day 0). The control mice received injections of hydroxypropylcellulose vehicle only. The mice were weighted and survivors were recorded on a regular basis for 60 days. The median survival times and the ratio of the median survival times for treated (T) to control (C) mice were calculated. The median survival time of the nontreated tumored mice ranged from 15 to 17 days. Drug effectiveness was assessed on the basis of the survival time. Results were expressed as a percentage of the control survival time (Survival Time T/C ×100%). The criterion for effectiveness was determined by: T/C ×100 ≥125 percent.

L1210 leukemia = assay: Lymphoid Leukemia L1210, survival of tumored mice; type: in vivo, CD2F1 mice; conditions: Mus musculus, L1210, ip, 720 h; for response vs control in vivo at 200 mg/kg: 200 mg/kg i.p.
In short: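 Male CD2 F1 mice, six per group, received 10^5 L1210 cells i.p. on day 0. Compounds in hydroxypropylcellulose, saline/Tween 80 or saline were given i.p. at various doses once daily on days 1-9, with vehicle controls.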

[1] = tested on: human colon carcinoma cells HCT-15; assay: Human colon tumor test in vitro, HCT-15 cell growth inhibition; type: cell-based; conditions: for in vitro HCT-15 ID50 (50 percent inhibition of number of doublings): 4320 min; for IC50: Homo sapiens, HCT-15, 72 h, read-out: in vitro HCT-15 ID50 (50 percent inhibition of number of doublings)
In short: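 HCT-15 human colon adenocarcinoma cells in RPMI 1640 with 10% heat-inactivated FCS, compound added on day 1 and cells counted by hemocytometer on day 4. ID50 is the concentration (μg/ml) halving the number of doublings, from log-log dose-response plots.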

human colon tumor HCT-15 = assay: Human colon tumor HCT-15 in athymic mice; type: in vivo, Swiss NU/NU athymic mice; conditions: for Average Tumor Weight, Day 7 (day treatment was started) / Average Tumor Weight, Day 21 / Net Tumor Weight gain, Day 21 / Tumor Growth Inhibition, Day 21: 5 days from day 7; for toxicity: 40 mg/kg i.p., athymic mice
Method: The compounds of Example 1 and 91 were also tested for effectiveness against a human colon tumor implanted in athymic mice.
The animals used were Swiss NU/NU athymic mice, weighing 20-22 g each at the start of the test. The test group consisted of twelve mice, seven males and five females. The HCT-15 tumor cell line, derived from a patient with adenocarcinoma of the colon, was maintained in culture. The tumor was implanted in each of the test mice by the subcutaneous injection in the flank region of 0.2 ml of physiological saline containing 10^7 HCT-15 cultured cells. Tumors appeared within 72 hours and treatment started one week after tumor inoculation.
Test compounds, suspended in methocel (0.5% in water) or dissolved in water, were injected intraperitoneally once daily for five consecutive days starting on day seven relative to the day of tumor inoculation (day 0). The body weight and the size of the tumor were determined daily. Tumor size was determined by two-dimensional caliper measurements. Tumor weight was estimated from the formula: [formula] tumor weight in which 1=length and w=width of the tumor in mm. The net tumor weight was determined by subtracting from the actual tumor weight at the time of evaluation the initial estimated tumor weight at the time treatment was started (day 7). Drug effectiveness was assessed on the basis of inhibition of the gain in net tumor weight in the treated (T) compared to that of the control (C) mice. Percent tumor growth inhibition was calculated by the formula: [formula]

colon tumors = conditions: in vivo; cited from earlier work
[2] = read-out: L1210 Leukemia % T/C (median survival time)
[3] = HCT-15 cells, compound day 1 to day 4
[4] = 100 mg/kg i.p., read-out: L1210 Leukemia % T/C (median survival time)

## Cc1c(-c2ccc(C3CCCCC3)cc2)nc2ccc(F)cc2c1C(=O)O [Example 1, 2-(4-Cyclohexylphenyl)-6-fluoro-3-methylquinoline-4-carboxylic acid]
Melanotic melanoma B16; 25 mg/kg i.p. once daily
  T/C × 100 (median survival time): 127% and 125%
Melanotic melanoma B16; 50 mg/kg i.p. once daily
  T/C × 100 (median survival time): 148% and 138%
Melanotic melanoma B16; 100 mg/kg i.p. once daily
  T/C × 100 (median survival time): 145% and 155%
Melanotic melanoma B16; 200 mg/kg i.p. once daily
  T/C × 100 (median survival time): 145% and 150%
Melanotic melanoma B16; 400 mg/kg i.p. once daily
  T/C × 100 (median survival time): 131% and 179%
Melanotic melanoma B16; criterion T/C × 100 ≥125 percent
  effectiveness against B16 melanoma in mice: effective against the B16 melanoma in mice
L1210 leukemia; [2]
  response vs control in vivo at 200 mg/kg: 189%
[1]; [3]
  in vitro HCT-15 ID50 (50 percent inhibition of number of doublings): 0.05 µg/mL
Human colon tumor HCT-15; 50 mg/kg i.p. once daily
  Average Tumor Weight, Day 7 (day treatment was started): 56.3 mg
  Average Tumor Weight, Day 21: 252.9 mg
  Net Tumor Weight gain, Day 21: 196.6 mg
  Tumor Growth Inhibition, Day 21: 33.1%
Human colon tumor HCT-15; 100 mg/kg i.p. once daily
  Average Tumor Weight, Day 7 (day treatment was started): 56.6 mg
  Average Tumor Weight, Day 21: 212.9 mg
  Net Tumor Weight gain, Day 21: 156.3 mg
  Tumor Growth Inhibition, Day 21: 46.8%
Human colon tumor HCT-15; 200 mg/kg i.p. once daily
  Average Tumor Weight, Day 7 (day treatment was started): 56.8 mg
  Average Tumor Weight, Day 21: 156.3 mg
  Net Tumor Weight gain, Day 21: 99.4 mg
  Tumor Growth Inhibition, Day 21: 66.2%

## N.N.[Cl][Pt][Cl] [Cisplatin, reference compound]
Melanotic melanoma B16; 1 mg/kg i.p. once daily
  T/C × 100 (median survival time): 175%
Melanotic melanoma B16; 2 mg/kg i.p. once daily
  T/C × 100 (median survival time): 212% and 136%
[1]; [3]
  in vitro HCT-15 ID50 (50 percent inhibition of number of doublings): 0.66 µg/mL

## O=c1[nH]cc(F)c(=O)[nH]1 [5-Fluorouracil, reference compound]
L1210 leukemia; [2]
  response vs control in vivo at 16 mg/kg: 228%
[1]
  IC50: 0.27 µg/mL (≈ 2.08 µM)
Human colon tumor HCT-15; 20 mg/kg i.p.
  effectiveness: ineffective
Human colon tumor HCT-15; 20 mg/kg i.p. once daily
  Average Tumor Weight, Day 7 (day treatment was started): 56.7 mg
  Average Tumor Weight, Day 21: 421.7 mg
  Net Tumor Weight gain, Day 21: 365 mg
  Tumor Growth Inhibition, Day 21: 0%
Human colon tumor HCT-15
  toxicity: Toxic
Human colon tumor HCT-15; listed as 5-Fluorouacil
  toxicity: toxic
Colon tumors
  effectiveness in treatment of colon tumors in man: not consistently effective

## Cc1cc2c(C(=O)O)c(C)c(-c3ccc(Oc4ccccc4)cc3)nc2cc1Cl [Example 59]
L1210 leukemia; 300 mg/kg i.p., read-out: L1210 Leukemia % T/C (median survival time)
  response vs control in vivo at 300 mg/kg: 152%
[1]; [3]
  IC50: > 5 µg/mL

## CSc1ccc2nc(-c3ccc(-c4ccccc4)cc3)c(C)c(C(=O)O)c2c1 [Example 161]
L1210 leukemia; [4]
  response vs control in vivo at 100 mg/kg: 148%
[1]; [3]
  IC50: > 1 µg/mL

## O=C(O)c1cc(-c2ccc(-c3ccccc3)cc2)nc2ccc(F)cc12 [Example 33]
L1210 leukemia; [2]
  response vs control in vivo at 200 mg/kg: 170%
[1]; [3]
  IC50: < 0.5 µg/mL

## Cc1c(-c2ccc(-c3ccccc3)cc2)nc2cc(F)ccc2c1C(=O)O [Example 87]
L1210 leukemia; [4]
  response vs control in vivo at 100 mg/kg: 146%
[1]; [3]
  IC50: < 0.5 µg/mL

## Cc1c(-c2ccc(-c3ccccc3)cc2)nc2cc(Cl)cc(Cl)c2c1C(=O)O [Example 82]
L1210 leukemia; [4]
  response vs control in vivo at 100 mg/kg: 144%
[1]; [3]
  IC50: > 1 µg/mL

## Cc1c(-c2ccc(C3CCCCC3)cc2)nc2ccc(F)cc2c1C(=O)[O-].[Na+] [Example 91, Sodium 2-(4-Cyclohexylphenyl)-6-fluoro-3-methylquinoline-4-carboxylate]
L1210 leukemia; read-out: L1210 Leukemia % T/C (median survival time), 40 mg/kg i.p., marked * (not explained)
  response vs control in vivo at 40 mg/kg: 140%
L1210 leukemia; read-out: L1210 Leukemia % T/C (median survival time), 100 mg/kg i.p., nonoptimal Q1DX9 instead of Q3DX9
  response vs control in vivo at 100 mg/kg: 103%
[1]
  IC50: 0.04 µg/mL
Human colon tumor HCT-15; 10 mg/kg i.p. once daily
  Average Tumor Weight, Day 7 (day treatment was started): 56.8 mg
  Average Tumor Weight, Day 21: 322.8 mg
  Net Tumor Weight gain, Day 21: 266.0 mg
  Tumor Growth Inhibition, Day 21: 10.0%
Human colon tumor HCT-15; 20 mg/kg i.p. once daily
  Average Tumor Weight, Day 7 (day treatment was started): 56.2 mg
  Average Tumor Weight, Day 21: 245.1 mg
  Net Tumor Weight gain, Day 21: 188.9 mg
  Tumor Growth Inhibition, Day 21: 35.7%
Human colon tumor HCT-15; 40 mg/kg i.p. once daily
  Average Tumor Weight, Day 7 (day treatment was started): 56.8 mg
  Average Tumor Weight, Day 21: 256.9 mg
  Net Tumor Weight gain, Day 21: 200.1 mg
  Tumor Growth Inhibition, Day 21: 32.0%
